Results: patent publication US20250197865A1, “PHARMACEUTICAL COMPOSITION FOR TREATMENT OR PREVENTION OF FIBROTIC DISEASE” (KYUSHU UNIVERSITY, NATIONAL UNIVERSITY CORPORATION, priority 2022, published 2025)

How the values were obtained:
Assay type in all cases: cell-based, mouse
P4HA3 mRNA = assay: siRNA treatment of myofibroblasts from carbon tetrachloride-induced fibrotic liver, P4HA3 mRNA by real-time RT-PCR
Procedure: (§1) The mRNA expression levels of P4HA3 etc. in the examples of the present specification were quantified as follows. The concentration of purified RNA was determined using a microspectrophotometer DS-11 (DeNovix), and reverse transcription to cDNA was performed using a High Capacity cDNA Reverse Transcription Kit (Applied Biosystems). Quantification of mRNA was performed according to the protocol of Luna Universal qPCR Master Mix (New England BioLabs), with DNA polymerase activation at 95° C. for 60 seconds, followed by 45 cycles of cDNA denaturation at 95° C. for 15 seconds and extension at 60° C. for 30 seconds. Analysis was performed by the AACt method using GAPDH as an internal standard. Mouse Cyp7al probe was purchased from Applied Biosystems. Primers and probes for mouse α-smooth muscle actin (α-SMA), CD68, 1α1 collagen (Col1α1), 1α2 collagen (Col1α2), 1α3 collagen (Col1α3), 6α1 collagen (Col6α1), 8α1 collagen (Co81α1), GAPDH (glyceraldehyde-3-phosphate dehydrogenase), heat shock protein 47 (Hsp47), prolyl 4-hydroxylase alphal subunit (P4HA1), prolyl 4-hydroxylase alpha2 subunit (P4HA2), and prolyl 4-hydroxylase alpha3 subunit (P4HA3) were purchased from Sigma-Aldrich.
As in Example 3, the effect of suppressing P4HA3 mRNA expression on the mRNA expression of other fibrosis-related factors was examined in cultured myofibroblasts isolated from the liver 4 weeks after the start of carbon tetrachloride administration. The liver was removed from a mouse model of carbon tetrachloride (CCl4)-induced fibrotic livers and divided into small pieces. After that, the liver pieces were washed with washing buffer [25 mM HEPES/[…]/HBSS(-)], and the cell solution containing myofibroblasts was collected by shaking the liver pieces three times for 30 min at 37° C. in . . . digestion buffer [0.1% Collagenase A/15 mM HEPES/HBSS(-)]. After that, blood cell components were removed with Red Blood Cell Lysis Buffer, and the cells were suspended in 10% FBS/1% Penicillin-Streptomycin/DMEM, and then seeded on a culture plate. After 6 hr, the medium was replaced to remove non-adherent cells and debris. After that, the cells were cultured overnight in a CO2 incubator, and non-adherent cells were again removed by washing with PBS, and adherent cells were collected using Accutase. After 20 min of reaction with CD45 antibody labeled with magnetic beads, CD45-positive blood cells were removed by MACS (magnetic cell sorting) using an LS column, and CD45-negative cells were collected as myofibroblasts. After that, the purity of the isolated myofibroblasts was measured using FACS verse, and almost all of the CD45-negative cells after MACS were positive for α-SMA, a myofibroblast marker, and almost no contamination with blood cells was observed. […]

Hsp47 mRNA = assay: siRNA treatment of myofibroblasts from carbon tetrachloride-induced fibrotic liver, Hsp47 mRNA by real-time RT-PCR; conditions: myofibroblasts from CCl4 fibrotic liver; FIGS. 20A and B
Procedure: The mRNA expression levels of P4HA3 etc. in the examples of the present specification were quantified as follows. The concentration of purified RNA was determined using a microspectrophotometer DS-11 (DeNovix), and reverse transcription to cDNA was performed using a High Capacity cDNA Reverse Transcription Kit (Applied Biosystems). Quantification of mRNA was performed according to the protocol of Luna Universal qPCR Master Mix (New England BioLabs), with DNA polymerase activation at 95° C. for 60 seconds, followed by 45 cycles of cDNA denaturation at 95° C. for 15 seconds and extension at 60° C. for 30 seconds. Analysis was performed by the AACt method using GAPDH as an internal standard. Mouse Cyp7al probe was purchased from Applied Biosystems. […]
As in Example 3, the effect of suppressing P4HA3 mRNA expression on the mRNA expression of other fibrosis-related factors was examined in cultured myofibroblasts isolated from the liver 4 weeks after the start of carbon tetrachloride administration. […] After that, the purity of the isolated myofibroblasts was measured using FACS verse, and almost all of the CD45-negative cells after MACS were positive for α-SMA, a myofibroblast marker, and almost no contamination with blood cells was observed. […]

[1] = test system: mRNA expression of fibrosis-related factors (collagens, elastin) in myofibroblasts; assay: siRNA treatment of myofibroblasts from carbon tetrachloride-induced fibrotic liver, fibrosis-related factor mRNA by real-time RT-PCR; conditions: myofibroblasts from transiently fibrotic liver, FIG. 9
Procedure: as §1
As in Example 3, the effect of suppressing P4HA3 mRNA expression on the mRNA expression of other fibrosis-related factors was examined in cultured myofibroblasts isolated from the liver 4 weeks after the start of carbon tetrachloride administration. The liver was removed from a mouse model of carbon tetrachloride (CCl4)-induced fibrotic livers and divided into small pieces. After that, the liver pieces were washed with washing buffer [25 mM HEPES/[…]/HBSS(-)], and the cell solution containing myofibroblasts was collected by shaking the liver pieces three times for 30 min at 37° C. in . . . digestion buffer [0.1% Collagenase A/15 mM HEPES/HBSS(-)]. After that, blood cell components were removed with Red Blood Cell Lysis Buffer, and the cells were suspended in 10% FBS/1% Penicillin-Streptomycin/DMEM, and then seeded on a culture plate. After 6 hr, the medium was replaced to remove non-adherent cells and debris. After that, the cells were cultured overnight in a CO2 incubator, and non-adherent cells were again removed by washing with PBS, and adherent cells were collected using Accutase. After 20 min of reaction with CD45 antibody labeled with magnetic beads, CD45-positive blood cells were removed by MACS (magnetic cell sorting) using an LS column, and CD45-negative cells were collected as myofibroblasts. After that, the purity of the isolated myofibroblasts was measured using FACS verse, and almost all of the CD45-negative cells after MACS were positive for α-SMA, a myofibroblast marker, and almost no contamination with blood cells was observed. Si P4HA3 #1 and si P4HA3 #2, ThermoFisher Scientific catalog numbers 4390771 and 4390771 (Assay ID: s115723 and s115721), were added to the myofibroblast culture at a final concentration of 3.125 nM using Lipofectamine RNAiMAX (Invitrogen). In experiments in which si P4HA3 #2 was not used, such as in Example 3, si P4HA3 #1 was used as “si P4HA3”. For siRNA control experiments, Silencer Select Negative Control no. 1 siRNA (ThermoFisher Scientific, catalog number: 4390843) was used as si Ctrl. The nucleotide sequences of the sense and antisense strands of si P4HA3 #1 are listed in the sequence listing attached hereto as SEQ ID NOs: 1 and 2, respectively. The nucleotide sequences of the sense and antisense strands of si P4HA3 #2 are listed in the sequence listing attached hereto as SEQ ID NOs: 3 and 4, respectively.
Si Hsp47 and si P4HA3 #1 from Example 7 were used as knockdown reagents for Hsp47 and P4HA3, respectively. For si Hsp47, ThermoFisher Scientific catalog number 4390771 (Assay ID: s232335) was used. Separation of cell type fractions from livers collected 4 weeks after the start of carbon tetrachloride administration was performed in the same manner as in Example 6. […]

Substance	P4HA3 mRNA expression (P4HA3 mRNA; myofibroblasts from damaged fibrotic liver, FIG. 21-1 B)	effect of suppressing the mRNA expression of each target gene, si Hsp47 compared with si P4HA3 (Hsp47 mRNA)	mRNA expression of P4HA3 (P4HA3 mRNA; myofibroblasts from transiently fibrotic liver, siRNA 3.125 nM, versus si Ctrl, FIG. 9)	difference in mRNA expression inhibitory effect between si P4HA3 #1 and si P4HA3 #2 for 3α1 collagen and elastin [1]	mRNA expression of 1α1 collagen ([1]; siRNA 3.125 nM, versus si Ctrl)	mRNA expression of other fibrosis-related factors ([1]; siRNA 3.125 nM, versus si Ctrl)
si Hsp47: siRNA for mouse Hsp47, SEQ ID NOs: 12 and 13; ThermoFisher Scientific catalog 4390771, Assay ID s232335 (chain 1 CGGACAGGCCTGTACAACTTT; chain 2 AGTTGTACAGGCCTGTCCGGT; listed as DNA, chemistry not given here) [reference compound]	did not suppress P4HA3 mRNA expression at all	stronger effect	–	–	–	–
si P4HA3 #2: siRNA #2 against mouse P4HA3, sense/antisense SEQ ID NOs: 3 and 4; ThermoFisher Scientific catalog 4390771, Assay ID s115721 (sense GCTCATAGCTCTCTACCATTT; antisense ATGGTAGAGAGCTATGAGCGG; listed as DNA, chemistry not given here)	–	–	inhibited	no significant difference	inhibited	inhibited
